In paper PMC6804443 (Acta Pharmaceutica Sinica. B, 2019):
Like-named read-outs stand apart in the source and are kept apart here.

Columns and labels:
[1] = molecular target: T1, OATP1B3 (Homo sapiens, UniProt Q9NPD5); experiment: in vitro
T1 sequence (Q9NPD5 1-702): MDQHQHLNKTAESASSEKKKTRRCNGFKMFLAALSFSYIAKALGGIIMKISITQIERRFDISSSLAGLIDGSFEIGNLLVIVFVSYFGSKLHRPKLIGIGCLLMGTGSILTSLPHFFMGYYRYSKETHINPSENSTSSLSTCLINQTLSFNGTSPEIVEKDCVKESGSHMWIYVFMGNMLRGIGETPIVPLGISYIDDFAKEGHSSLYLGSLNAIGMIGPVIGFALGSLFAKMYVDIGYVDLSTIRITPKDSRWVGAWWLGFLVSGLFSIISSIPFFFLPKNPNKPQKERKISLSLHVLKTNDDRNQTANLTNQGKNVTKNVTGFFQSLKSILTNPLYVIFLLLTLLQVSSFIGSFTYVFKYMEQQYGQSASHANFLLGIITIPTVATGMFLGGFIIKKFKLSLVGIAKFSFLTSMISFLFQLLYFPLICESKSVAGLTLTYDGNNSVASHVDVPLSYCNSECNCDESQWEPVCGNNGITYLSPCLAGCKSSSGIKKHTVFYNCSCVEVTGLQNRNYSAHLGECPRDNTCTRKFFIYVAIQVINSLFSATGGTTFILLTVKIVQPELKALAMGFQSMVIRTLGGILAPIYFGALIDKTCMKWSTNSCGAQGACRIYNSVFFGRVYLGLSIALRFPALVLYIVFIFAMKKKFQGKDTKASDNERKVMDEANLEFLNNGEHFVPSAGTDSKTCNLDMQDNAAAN

[2] = molecular target: T2, OAT2 (Homo sapiens, UniProt Q9Y694); experiment: OAT2 inhibition by antibiotics, transfected HEK293 cells, tanshinol as substrate; type: in vitro ADME; conditions: for inhibition at 1000 µM: HEK293, read-out: Inhibition of OAT2
T2 sequence (Q9Y694 1-546 isoform Q9Y694-2): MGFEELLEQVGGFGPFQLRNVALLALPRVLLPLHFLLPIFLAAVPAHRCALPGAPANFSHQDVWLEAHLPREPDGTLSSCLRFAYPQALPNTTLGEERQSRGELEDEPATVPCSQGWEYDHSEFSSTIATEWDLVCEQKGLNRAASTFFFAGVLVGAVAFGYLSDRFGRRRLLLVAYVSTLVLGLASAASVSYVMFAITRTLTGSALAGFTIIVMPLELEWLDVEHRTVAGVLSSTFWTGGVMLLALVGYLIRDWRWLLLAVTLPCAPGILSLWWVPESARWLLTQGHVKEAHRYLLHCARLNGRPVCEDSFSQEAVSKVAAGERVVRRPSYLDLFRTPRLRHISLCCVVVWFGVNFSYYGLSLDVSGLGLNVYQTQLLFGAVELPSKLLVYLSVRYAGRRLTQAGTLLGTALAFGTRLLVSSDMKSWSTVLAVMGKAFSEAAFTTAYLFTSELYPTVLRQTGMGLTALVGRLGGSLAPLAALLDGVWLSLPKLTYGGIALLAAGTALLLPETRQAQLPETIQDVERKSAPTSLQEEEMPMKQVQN

[3] = molecular target: T3, OAT1 (Homo sapiens, UniProt Q4U2R8); experiment: OAT1 inhibition by antibiotics, transfected HEK293 cells, tanshinol as substrate; conditions: for Inhibition DDI index, OAT1: antibiotic as perpetrator, tanshinol (X8) as victim, (Cmax × fu-p × R)/IC50; for inhibition at 1000 μmol/L: human
T3 sequence (Q4U2R8 1-563): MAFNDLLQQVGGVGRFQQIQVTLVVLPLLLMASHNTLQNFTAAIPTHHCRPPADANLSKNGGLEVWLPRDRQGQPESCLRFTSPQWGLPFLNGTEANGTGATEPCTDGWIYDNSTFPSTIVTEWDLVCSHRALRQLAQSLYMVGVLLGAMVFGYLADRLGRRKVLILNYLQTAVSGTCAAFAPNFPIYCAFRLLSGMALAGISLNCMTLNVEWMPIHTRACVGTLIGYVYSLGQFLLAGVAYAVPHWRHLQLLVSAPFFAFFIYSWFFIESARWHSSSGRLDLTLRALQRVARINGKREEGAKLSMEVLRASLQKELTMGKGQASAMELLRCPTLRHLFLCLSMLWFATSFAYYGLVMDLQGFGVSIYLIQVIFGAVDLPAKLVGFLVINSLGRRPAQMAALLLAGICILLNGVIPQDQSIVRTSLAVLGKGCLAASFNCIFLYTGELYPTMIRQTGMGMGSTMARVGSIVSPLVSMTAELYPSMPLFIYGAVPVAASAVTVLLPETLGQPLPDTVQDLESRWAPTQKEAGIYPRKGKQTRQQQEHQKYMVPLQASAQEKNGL

[4] = molecular target: T1, OATP1B3; conditions: IC50, OATP1B3 [X10], mean ± SD (n = 3)
[5] = molecular target: T1, OATP1B3; conditions: for Inhibition DDI index, OATP1B3: antibiotic as perpetrator, salvianolic acid B (X10) as victim, (Cmax × fu-p × R)/IC50
[6] = molecular target: T4, UGT2B15 (Homo sapiens, UniProt P54855); type: in vitro ADME; conditions: for inhibition at 1000 μmol/L: human, cDNA-expressed UGT2B15
T4 sequence (P54855 24-530): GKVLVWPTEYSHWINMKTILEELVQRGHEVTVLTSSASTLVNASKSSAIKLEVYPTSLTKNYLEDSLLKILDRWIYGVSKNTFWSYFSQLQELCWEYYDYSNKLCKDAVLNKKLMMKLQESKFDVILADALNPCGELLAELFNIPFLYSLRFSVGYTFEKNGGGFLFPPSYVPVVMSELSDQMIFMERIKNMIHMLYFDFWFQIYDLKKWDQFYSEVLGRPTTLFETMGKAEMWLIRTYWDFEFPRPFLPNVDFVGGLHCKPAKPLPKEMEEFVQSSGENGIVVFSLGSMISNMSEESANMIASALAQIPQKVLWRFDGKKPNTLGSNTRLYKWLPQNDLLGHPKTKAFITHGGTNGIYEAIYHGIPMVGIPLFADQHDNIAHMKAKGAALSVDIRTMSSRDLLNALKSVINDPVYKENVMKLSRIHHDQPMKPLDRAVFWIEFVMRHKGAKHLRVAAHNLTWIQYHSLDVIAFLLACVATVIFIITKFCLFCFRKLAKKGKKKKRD

[7] = system: ALDH; type: in vitro ADME; conditions: human, pooled human liver cytosol
[8] = system: P450 enzymes, UGTs, SULTs, OATP1B1/1B3, OAT1/3, OCT2, MATE1/2-K, MDR1, BCRP; conditions: cited from earlier work
[9] = XueBiJing compounds, cited from earlier work; for LogD(7.4): pH 7.4
[10] = cited from earlier work; for fu-p (unbound fraction in plasma): human plasma; for Cmax / VSS / t1/2 / Major elimination route / fe-U (fraction of dose excreted unchanged into urine): human; for Cmax / VSS / t1/2: XueBiJing 100 mL via 75-min intravenous infusion
[11] = type: in vivo; conditions: human; XueBiJing at label dose 100 mL
[12] = XueBiJing compounds; cited from earlier work
[13] = molecular target: T3, OAT1; experiment: OAT1 inhibition by XueBiJing compounds, transfected HEK293 cells [PAH]; type: in vitro ADME
[14] = system: CYP3A4; conditions: higher concentrations; range over the named compounds and enzymes
[15] = system: CYP2B6; experiment: CYP2B6 induction by XueBiJing compounds in cryopreserved human hepatocytes; type: in vitro ADME; conditions: higher concentrations; range over the named compounds and enzymes
[16] = molecular target: T2, OAT2; type: in vitro ADME

Compound	inhibition at 1000 μmol/L [1] [%]	IC50 [3] [µM]	Inhibition DDI index, OAT1 [3]	inhibition at 1000 μmol/L [3] [%]	IC50 [4] [µM]	Inhibition DDI index, OATP1B3 [5]	Related metabolism and transport data (substrate status) [8]	pKa [9]	LogD(7.4) [9]	fu-p (unbound fraction in plasma) [10] [%]	Cmax [10] [nM]	VSS [10] [L/kg]	t1/2 [10] [h]	Major elimination route [10]	Membrane permeability [12]	also measured
Cc1onc(-c2c(F)cccc2Cl)c1C(=O)N[C@@H]1C(=O)N2[C@@H]1SC(C)(C)[C@@H]2C(=O)O [A19, flucloxacillin]	> 90	173 ± 27	0.16	≥ 90	26 ± 9	1.07	–	–	–	–	–	–	–	–	–	IC50 [2]: 729 ± 131 µM; inhibition at 1000 µM [2]: 60 to 84%; IC50 [6]: 336 ± 83 µM; inhibition at 1000 μmol/L [6]: 60 to 88%; IC50 [7]: 45 ± 6 µM; inhibition at 1000 μmol/L [7]: 56 to 88%
C[C@@]12C[C@@]3(O)O[C@@H](O1)[C@]1(COC(=O)c4ccccc4)[C@H]3C[C@@]12O[C@@H]1O[C@H](CO)[C@@H](O)[C@H](O)[C@H]1O [X2, paeoniflorin]	–	–	–	–	–	–	Not the substrate of P450 enzymes, UGTs, SULTs, OATP1B1/1B3, OAT1/3, OCT2, MATE1/2-K, MDR1, or BCRP	11.5	0.1	82	18200	0.19	1.1	Renal excretion, GF-based	Poor	fe-U (fraction of dose excreted unchanged into urine) [10]: 63%; Unbound Cmax [11]: 15000 nM
teicoplanin [A26]	–	–	–	–	–	0.60	–	–	–	–	–	–	–	–	–	IC50 ([2]; read-out: IC50, OAT2 [X8], mean ± SD (n = 3)): 64 ± 14 µM; IC50 ([5]; read-out: IC50, OATP1B3 [X10], mean ± SD (n = 3)): 8 ± 2 µM; Inhibition of OATP1B3 ([5]; test concentration 100 μmol/L): > 90%
Cc1onc(-c2ccccc2)c1C(=O)N[C@@H]1C(=O)N2[C@@H]1SC(C)(C)[C@@H]2C(=O)O [A17, oxacillin]	> 90	99 ± 31	0.52	63 to 88	11 ± 2	4.64	–	–	–	–	–	–	–	–	–	IC50 [2]: 467 ± 97 µM; inhibition at 1000 µM [2]: 60 to 84%; Inhibition DDI index, OAT2 ([2]; antibiotic as perpetrator, tanshinol (X8) as victim, (Cmax × fu-p × R)/IC50): 0.11; IC50 [7]: 465 ± 72 µM; inhibition at 1000 μmol/L [7]: 56 to 88%
C[C@@H](c1ncncc1F)[C@](O)(Cn1cncn1)c1ccc(F)cc1F [A45, voriconazole]	64 to 88	189 ± 75	0.22	63 to 88	19 ± 8	2.16	–	–	–	–	–	–	–	–	–	IC50 [6]: 55 ± 6 µM; Inhibition DDI index, UGT2B15 ([6]; antibiotic as perpetrator, senkyunolide I (X5) as victim, (Cmax × fu-p × R)/IC50): 0.75; inhibition at 1000 μmol/L [6]: ≥ 90%
C[C@]12C[C@@H](O)[C@@H]3C[C@@]1(O[C@@H]1O[C@H](CO)[C@@H](O)[C@H](O)[C@H]1O)[C@@]3(COC(=O)c1ccccc1)C(=O)O2 [X4, albiflorin]	–	–	–	–	–	–	Not the substrate of P450 enzymes, UGTs, SULTs, OATP1B1/1B3, OAT1/3, OCT2, MATE1/2-K, MDR1, or BCRP	12.8	−0.9	83	800	0.08	0.7	Renal excretion, GF-based	Poor	fe-U (fraction of dose excreted unchanged into urine) [10]: 62%
CCCCC1(O)OC(=O)C2=C1CCC=C2 (stereo not drawn) [X7, senkyunolide G]	–	–	–	–	–	–	Poor UGT substrate	10.7	1.5	3	500	0.10	2.3	Hepatic glucuronidation	Good	Inhibition of OAT1 ([13]; 100 μmol/L): > 50%; IC50 ([13]; read-out: IC50, OAT1 [PAH], mean ± SD (n = 3)): 11 ± 3 µM; mRNA-T/U ratio, CYP3A4 [14]: 4.0 to 9.6; mRNA-T/U ratio, CYP2B6 [15]: 4.0 to 9.6; Inhibition of OAT2 ([16]; 100 μmol/L): > 50%; IC50 ([16]; read-out: IC50, OAT2 [prostaglandin F2α], mean ± SD (n = 3)): 51 ± 5 µM
